Measurements as given in PubChem BioAssay AID1963978 (Molecular Pharmacology Branch, DTP, NCI, 2024).
pIC50: −log10 of the molar value.

Test system: 616215-338-R-J1-PDC spheroids with HUVEC/MSC, viability
Assay: Anticancer human tumor 616215-338-R-J1-PDC patient-derived colon adenocarcinoma cell line growth inhibition [PI3K]
Details: for pIC50: curve of first compound; for viability, T/C: stronger effect = lower value
How it was run: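 Agents were dosed from a top concentration near clinical Cmax (otherwise 10 microM) in half-log decrements, alone or combined with PI3K inhibitors. The spheroids contain tumor cells plus endothelial (HUVEC) and MSC stroma; viability is measured.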

[1] = second compound 0.00316 µM, first compound 0.0316 µM
[2] = second compound 0.00316 µM, first compound 0.1 µM
[3] = second compound 0.01 µM, first compound 0.0316 µM
[4] = second compound 0.01 µM, first compound 0.1 µM
[5] = second compound 0.0316 µM, first compound 0.0316 µM
[6] = second compound 0.0316 µM, first compound 0.1 µM
[7] = second compound 0.1 µM, first compound 0.0316 µM
[8] = second compound 0.1 µM, first compound 0.1 µM
[9] = second compound 0.316 µM, first compound 0.0316 µM
[10] = second compound 0.316 µM, first compound 0.1 µM
[11] = second compound 1 µM, first compound 0.0316 µM
[12] = second compound 1 µM, first compound 0.1 µM
[13] = second compound 0.00316 µM, first compound 0.316 µM
[14] = second compound 0.00316 µM, first compound 1 µM
[15] = second compound 0.00316 µM, first compound 3.16 µM
[16] = second compound 0.00316 µM, first compound 10 µM
[17] = second compound 0.01 µM, first compound 0.316 µM
[18] = second compound 0.01 µM, first compound 1 µM
[19] = second compound 0.01 µM, first compound 3.16 µM
[20] = second compound 0.01 µM, first compound 10 µM
[21] = second compound 0.0316 µM, first compound 0.316 µM
[22] = second compound 0.0316 µM, first compound 1 µM
[23] = second compound 0.0316 µM, first compound 3.16 µM
[24] = second compound 0.0316 µM, first compound 10 µM
[25] = second compound 0.1 µM, first compound 0.316 µM
[26] = second compound 0.1 µM, first compound 1 µM
[27] = second compound 0.1 µM, first compound 3.16 µM
[28] = second compound 0.1 µM, first compound 10 µM
[29] = second compound 0.316 µM, first compound 0.316 µM
[30] = second compound 0.316 µM, first compound 1 µM
[31] = second compound 0.316 µM, first compound 3.16 µM
[32] = second compound 0.316 µM, first compound 10 µM
[33] = second compound 1 µM, first compound 0.316 µM
[34] = second compound 1 µM, first compound 1 µM
[35] = second compound 1 µM, first compound 3.16 µM
[36] = second compound 1 µM, first compound 10 µM
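Also: spheroids exposed to agents for seven days before the viability read.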

CC(=O)c1c(C)c2cnc(Nc3ccc(N4CCNCC4)cn3)nc2n(C2CCCC2)c1=O + CC(Nc1ccc2c(c1)OCCn1cc(N3C(=O)OCC3C(F)F)nc1-2)C(N)=O
pIC50 (second compound 0.00316 µM): < 7.00 | pIC50 (second compound 0.01 µM): < 7.00 | pIC50 (second compound 0.0316 µM): < 7.00 | pIC50 (second compound 0.1 µM): < 7.00 | pIC50 (second compound 0.316 µM): < 7.00 | pIC50 (second compound 1 µM): < 7.00 | viability, T/C (second compound 0.00316 µM, first compound 0.000316 µM): 87.7% | viability, T/C (second compound 0.00316 µM, first compound 0.001 µM): 104% | viability, T/C (second compound 0.00316 µM, first compound 0.00316 µM): 93% | viability, T/C (second compound 0.00316 µM, first compound 0.01 µM): 99.4% | viability, T/C [1]: 94.6% | viability, T/C [2]: 95.9% | viability, T/C (second compound 0.01 µM, first compound 0.000316 µM): 99.6% | viability, T/C (second compound 0.01 µM, first compound 0.001 µM): 100% | viability, T/C (second compound 0.01 µM, first compound 0.00316 µM): 107% | viability, T/C (second compound 0.01 µM, first compound 0.01 µM): 90.2% | viability, T/C [3]: 99.5% | viability, T/C [4]: 96.5% | viability, T/C (second compound 0.0316 µM, first compound 0.000316 µM): 93.2% | viability, T/C (second compound 0.0316 µM, first compound 0.001 µM): 102% | viability, T/C (second compound 0.0316 µM, first compound 0.00316 µM): 98.2% | viability, T/C (second compound 0.0316 µM, first compound 0.01 µM): 101% | viability, T/C [5]: 91.5% | viability, T/C [6]: 107% | viability, T/C (second compound 0.1 µM, first compound 0.000316 µM): 102% | viability, T/C (second compound 0.1 µM, first compound 0.001 µM): 99% | viability, T/C (second compound 0.1 µM, first compound 0.00316 µM): 92.6% | viability, T/C (second compound 0.1 µM, first compound 0.01 µM): 112% | viability, T/C [7]: 93.8% | viability, T/C [8]: 101% | viability, T/C (second compound 0.316 µM, first compound 0.000316 µM): 106% | viability, T/C (second compound 0.316 µM, first compound 0.001 µM): 112% | viability, T/C (second compound 0.316 µM, first compound 0.00316 µM): 100% | viability, T/C (second compound 0.316 µM, first compound 0.01 µM): 106% | viability, T/C [9]: 98% | viability, T/C [10]: 90.2% | viability, T/C (second compound 1 µM, first compound 0.000316 µM): 105% | viability, T/C (second compound 1 µM, first compound 0.001 µM): 94.7% | viability, T/C (second compound 1 µM, first compound 0.00316 µM): 102% | viability, T/C (second compound 1 µM, first compound 0.01 µM): 105% | viability, T/C [11]: 95.1% | viability, T/C [12]: 81.7%

C#Cc1c(F)ccc2cc(O)cc(-c3ncc4c(N5CC6CCC(C5)N6)nc(OCC56CCCN5CC(F)C6)nc4c3F)c12 (stereo unspecified) + CC(Nc1ccc2c(c1)OCCn1cc(N3C(=O)OCC3C(F)F)nc1-2)C(N)=O
pIC50 (second compound 0.00316 µM): < 5.00 | pIC50 (second compound 0.01 µM): < 5.00 | pIC50 (second compound 0.0316 µM): < 5.00 | pIC50 (second compound 0.1 µM): < 5.00 | pIC50 (second compound 0.316 µM): 5.16 | pIC50 (second compound 1 µM): 5.15 | viability, T/C [1]: 102% | viability, T/C [2]: 79.6% | viability, T/C [13]: 111% | viability, T/C [14]: 100% | viability, T/C [15]: 90.5% | viability, T/C [16]: 74.6% | viability, T/C [3]: 90% | viability, T/C [4]: 94% | viability, T/C [17]: 102% | viability, T/C [18]: 95.7% | viability, T/C [19]: 98.2% | viability, T/C [20]: 62.2% | viability, T/C [5]: 96% | viability, T/C [6]: 95.4% | viability, T/C [21]: 106% | viability, T/C [22]: 99.7% | viability, T/C [23]: 81.8% | viability, T/C [24]: 62.6% | viability, T/C [7]: 101% | viability, T/C [8]: 100% | viability, T/C [25]: 101% | viability, T/C [26]: 83.1% | viability, T/C [27]: 79.7% | viability, T/C [28]: 52.8% | viability, T/C [9]: 100% | viability, T/C [10]: 96.5% | viability, T/C [29]: 95.9% | viability, T/C [30]: 87.2% | viability, T/C [31]: 71.4% | viability, T/C [32]: 39.5% | viability, T/C [11]: 95.3% | viability, T/C [12]: 84.2% | viability, T/C [33]: 90.1% | viability, T/C [34]: 86.9% | viability, T/C [35]: 67.5% | viability, T/C [36]: 42.6%

CC1(C)CCC(Nc2ncc(C(F)(F)F)c(-c3c[nH]c4c(P(C)(C)=O)c(C#N)ccc34)n2)CN1 (stereo unspecified) + COc1c(OCCCN2CCOCC2)ccc2c3n(c(=NC(=O)c4cnc(N)nc4)nc12)CCN3
pIC50 (second compound 0.00316 µM): > 7.50 | pIC50 (second compound 0.01 µM): > 7.50 | pIC50 (second compound 0.0316 µM): > 7.50 | pIC50 (second compound 0.1 µM): 6.73 | pIC50 (second compound 0.316 µM): > 7.50 | pIC50 (second compound 1 µM): > 7.50 | viability, T/C [1]: 47.5% | viability, T/C [2]: 43.1% | viability, T/C [13]: 31.6% | viability, T/C [14]: 56.8% | viability, T/C [15]: 48.9% | viability, T/C [16]: 0.29% | viability, T/C [3]: 40.2% | viability, T/C [4]: 29% | viability, T/C [17]: 38.7% | viability, T/C [18]: 72.4% | viability, T/C [19]: 44.5% | viability, T/C [20]: 0.67% | viability, T/C [5]: 34.5% | viability, T/C [6]: 33.7% | viability, T/C [21]: 41.5% | viability, T/C [22]: 44.8% | viability, T/C [23]: 37.4% | viability, T/C [24]: 0.14% | viability, T/C [7]: 63.7% | viability, T/C [8]: 43.8% | viability, T/C [25]: 47.6% | viability, T/C [26]: 41.6% | viability, T/C [27]: 21.4% | viability, T/C [28]: 0.09% | viability, T/C [9]: 29.9% | viability, T/C [10]: 23.8% | viability, T/C [29]: 20.1% | viability, T/C [30]: 18.9% | viability, T/C [31]: 8.61% | viability, T/C [32]: 0.69% | viability, T/C [11]: 20% | viability, T/C [12]: 19.6% | viability, T/C [33]: 14.9% | viability, T/C [34]: 16.1% | viability, T/C [35]: 8.67% | viability, T/C [36]: 0.24%
